In patent US12577231B2, “Androgen receptor PROTACS” (GlaxoSmithKline Intellectual Property Development Limited, priority 2023, dated 2026):
Substitutions are numbered along the chain they refer to. Like-named read-outs stand apart in the source and are kept apart here.

Tests used:
[1] = molecular target: T1, Androgen receptor T878A/H875Y (Homo sapiens, UniProt P10275, H875Y/T878A); assay: Degradation of overexpressed Androgen Receptor in A549 cells (HiBiT), T878A/H875Y; type: cell-based; settings: A549 cells overexpressing AR T878A.H875Y, cycloheximide, 24 hours
T1 construct: expressed in transfected cells; host or cells: A549, transduced, puromycin selected
T1 sequence (P10275 1-920 H875Y/T878A): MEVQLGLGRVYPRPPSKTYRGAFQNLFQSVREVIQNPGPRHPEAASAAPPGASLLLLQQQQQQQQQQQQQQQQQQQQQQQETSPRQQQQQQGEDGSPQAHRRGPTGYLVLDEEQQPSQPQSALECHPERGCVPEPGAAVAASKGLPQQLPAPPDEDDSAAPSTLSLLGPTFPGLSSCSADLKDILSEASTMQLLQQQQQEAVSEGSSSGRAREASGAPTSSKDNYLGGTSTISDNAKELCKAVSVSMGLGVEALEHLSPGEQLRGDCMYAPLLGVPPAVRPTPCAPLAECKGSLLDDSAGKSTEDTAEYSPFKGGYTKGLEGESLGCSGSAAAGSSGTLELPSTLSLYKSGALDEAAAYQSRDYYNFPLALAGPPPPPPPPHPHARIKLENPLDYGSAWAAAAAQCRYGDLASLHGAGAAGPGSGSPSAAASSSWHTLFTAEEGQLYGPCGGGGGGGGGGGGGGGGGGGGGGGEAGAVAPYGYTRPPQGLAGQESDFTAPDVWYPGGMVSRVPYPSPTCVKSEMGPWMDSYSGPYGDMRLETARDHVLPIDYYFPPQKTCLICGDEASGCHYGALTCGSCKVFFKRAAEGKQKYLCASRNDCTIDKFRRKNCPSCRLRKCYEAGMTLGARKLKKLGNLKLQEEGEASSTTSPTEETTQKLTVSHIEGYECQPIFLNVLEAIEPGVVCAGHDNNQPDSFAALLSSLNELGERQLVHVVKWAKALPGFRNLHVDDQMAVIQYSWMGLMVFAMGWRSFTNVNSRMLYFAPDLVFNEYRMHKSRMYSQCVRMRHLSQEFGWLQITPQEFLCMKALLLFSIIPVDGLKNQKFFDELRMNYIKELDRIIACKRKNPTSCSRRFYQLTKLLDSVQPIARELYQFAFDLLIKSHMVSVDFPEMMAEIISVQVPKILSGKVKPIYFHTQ
Protocol: (§1) A549 cells were transduced to express wild type androgen receptor and Androgen receptor containing the following mutations (L702H, H875Y W742C W742L F877L, T878A and T878A/H875Y) with HiBiT tags. Transduced cells following puromycin selection were maintained in a humidified incubator (at 37° C. and 5% CO2 in the DMEM medium supplemented with 1% (v/v) Pen/Strep, 1% (v/v) Glutamax and 10% (v/v) FBS. A549 cells expressing each AR construct were detached from plate and counted. Cell suspensions at density 0.2 million per mL were prepared. Cell suspension was supplemented with 100 μg/mL of cycloheximide to block protein synthesis. Cells were preincubated with cycloheximide for 1 hr before seeding. Cells were seeded onto 384-well plate at density of 5,000 in 25 μL per well. A two fold serial dilution of test compounds, starting from 1 μM (row A) in 2-fold serial dilution series across the column using Tecan D300e dispenser. […]
(§2) Nano-Glo HiBiT Lytic reagent was prepared by adding LgBiT protein and Nano-Glo® substrate to lytic buffer pre-equilibrated at room temperature following manufacturer protocol (https://www.promega.co.uk/resources/protocols/technical-manuals/101/nanoglo-luciferase-assay-system-protocol). […] The plates were then centrifuged (100×G, 1 min) and incubated on shaker for 10 mins before taking readings on Pherastar Luminescence microplate reader. […]

[2] = male, Wistar Han, rat, in vivo, po
Protocol: Systemic exposure of various forms of N-((1r,3r)-3-(4-cyano-3-methoxyphenoxy)-2,2,4,4-tetramethylcyclobutyl)-4-(4-((4-(4-(2,4-dioxotetrahydropyrimidin-1(2H)-yl)-1H-pyrazolo[4,3-c]pyridin-1-yl)piperidin-1-yl)methyl)piperidin-1-yl)-3-fluorobenzamide were assessed following oral administration of 30 mg/kg of a suspension formulation (1% methylcellulose (aq)) or following oral administration of 35 mg/kg of a suspension formulation (100% PEG400) in the male Wistar Han rat. […] The sampling period was 72 hours, and the data is reported in the attached table as mean±SD (n=3).

Androgen receptor L702H = molecular target: T2, Androgen receptor L702H (Homo sapiens, UniProt P10275, L702H); assay: Degradation of overexpressed Androgen Receptor in A549 cells (HiBiT), L702H; type: cell-based; settings: A549 cells overexpressing AR L702H, cycloheximide, 24 hours
T2 construct: expressed in transfected cells; host or cells: A549, transduced, puromycin selected
T2 sequence (P10275 1-920 L702H): T1 sequence (P10275 1-920 H875Y/T878A) with L702H, Y875H, A878T
Protocol: as §1, §2

Summary pXC50 [1]: 8.57
Dose Normalised AUC0-t ([2]; 30 mg/kg): 240 ± 38 (ng · h/mL)/(mg/kg
Dose Normalised AUC0-t ([2]; 35 mg/kg): 744 ± 66 (ng · h/mL)/(mg/kg
Summary pXC50 (Androgen receptor L702H): 9.00
SMILES: COc1cc(O[C@H]2C(C)(C)[C@H](NC(=O)c3ccc(N4CCC(CN5CCC(n6ncc7c(N8CCC(=O)NC8=O)nccc76)CC5)CC4)c(F)c3)C2(C)C)ccc1C#N [Example 20, N-((1r,3r)-3-(4-Cyano-3-methoxyphenoxy)-2,2,4,4-tetramethylcyclobutyl)-4-(4-((4-(4-(2,4-dioxotetrahydropyrimidin-1(2H)-yl)-1H-pyrazolo[4,3-c]pyridin-1-yl)piperidin-1-yl)methyl)piperidin-1-yl)-3-fluorobenzamide]
